Structures are written as SMILES.

This series is described as follows: in vitro. Particulars: human, hek293t cells.
Regarding `N#CC(=Cc1ccc(F)c([N+](=O)[O-])c1)C(=O)Nc1ccc(F)cc1` [8-D04, 2-cyano-3-(4-fluoro-3-nitrophenyl)-N-(4-fluorophenyl)prop-2-enamide], the viability at 48 h, 25 µM was 1.12%. For `C=CCNC(=O)C(C#N)=Cc1cccc(C)c1` [8-D05, 2-cyano-3-(3-methylphenyl)-N-(prop-2-en-1-yl)prop-2-enamide], the viability at 48 h, 25 µM came to 102%.

As for `Cc1ccc(NC(=O)C(C#N)=Cc2cccc(Cl)c2Cl)cc1` [8-D06, 2-cyano-3-(2,3-dichlorophenyl)-N-(4-methylphenyl)prop-2-enamide], the viability at 48 h, 25 µM turned out to be 69.5%. As for `N#CC(=Cc1cccc(Oc2ccccc2)c1)C(=O)NC(N)=O` [8-D07, {2-cyano-2-[(3-phenoxyphenyl)methylidene]acetyl}urea], the figure is 134%; as for `N#CC(=Cc1ccc([N+](=O)[O-])c(Cl)c1)C(=O)NCc1ccccc1` [8-D08, N-benzyl-3-(3-chloro-4-nitrophenyl)-2-cyanoprop-2-enamide], 1.37%; as for `Cc1ccc(NC(=O)C(C#N)=Cc2ccc(C)s2)c(C)c1` [8-D09, 2-cyano-N-(2,4-dimethylphenyl)-3-(5-methylthiophen-2-yl)prop-2-enamide], 99.2%. For the compound `Cc1ccccc1NC(=O)C(C#N)=Cc1cccnc1` [8-D10, 2-cyano-N-(2-methylphenyl)-3-(pyridin-3-yl)prop-2-enamide], the viability at 48 h, 25 µM amounted to 95.5%.

Take `COc1ccc(NC(=O)C(C#N)=Cc2ccc(-c3ccccc3)cc2)cc1` [8-D11, 3-{[1,1'-biphenyl]-4-yl}-2-cyano-N-(4-methoxyphenyl)prop-2-enamide]: the viability at 48 h, 25 µM amounted to 103%. As for `CC(=O)Nc1ccc(C=C(C#N)C(=O)NCc2ccccc2)cc1` [8-D12, N-benzyl-2-cyano-3-(4-acetamidophenyl)prop-2-enamide], the figure is 84.4%; as for `CC1=CSC(=C(C#N)C(=O)NCc2ccco2)N1c1ccccc1` [8-D13, 2-cyano-N-[(furan-2-yl)methyl]-2-(4-methyl-3-phenyl-2,3-dihydro-1,3-thiazol-2-ylidene)acetamide], 114%; as for `N#CC(=Cc1c2ccccc2cc2ccccc12)C(=O)NC1CCCCC1` [8-D14, 3-(anthracen-9-yl)-2-cyano-N-cyclohexylprop-2-enamide], 94.6%. On to `Cc1ccc(NC(=O)C(C#N)=Cc2cccs2)c(C)c1` [8-D15, 2-cyano-N-(2,4-dimethylphenyl)-3-(thiophen-2-yl)prop-2-enamide], for which the viability at 48 h, 25 µM was 101%.

Regarding `Cc1[nH]c2ccccc2c1C=C(C#N)C(=O)NCc1ccccc1` [8-D16, N-benzyl-2-cyano-3-(2-methyl-1H-indol-3-yl)prop-2-enamide], the viability at 48 h, 25 µM was 96.6%. Consider `N#CC(=CC(Cl)=Cc1ccccc1)C(=O)NC1CCCCC1` [8-D17, 4-chloro-2-cyano-N-cyclohexyl-5-phenylpenta-2,4-dienamide], for which the viability at 48 h, 25 µM is 7.44%.

With `N#CC(=Cc1c(F)cccc1F)C(=O)NCCc1ccccc1` [8-D18, 2-cyano-3-(2,6-difluorophenyl)-N-(2-phenylethyl)prop-2-enamide], the viability at 48 h, 25 µM turned out to be 47.1%. For `Cc1ccccc1NC(=O)C(C#N)=Cc1cc(C)n(CC(C)C)c1C` [8-D19, 2-cyano-3-[2,5-dimethyl-1-(2-methylpropyl)-1H-pyrrol-3-yl]-N-(2-methylphenyl)prop-2-enamide] the value was 118%; for `N#CC(=Cc1cccs1)C(=O)Nc1cccc2ncccc12` [8-D20, 2-cyano-N-(quinolin-5-yl)-3-(thiophen-2-yl)prop-2-enamide], 84.3%. `Cc1ccc(C=C(C#N)C(=O)NC(N)=O)o1` [8-D21, {2-cyano-2-[(5-methylfuran-2-yl)methylidene]acetyl}urea]: the viability at 48 h, 25 µM came to 101%.

On to `Cc1ccsc1C=C(C#N)C(=O)Nc1c(Cl)cccc1Cl` [8-D22, 2-cyano-N-(2,6-dichlorophenyl)-3-(3-methylthiophen-2-yl)prop-2-enamide], for which the viability at 48 h, 25 µM came to 78.5%.

Turning to `N#CC(=Cc1ccc(OC(F)F)cc1)C(=O)N1CCCc2ccccc21` [8-E03, 3-[4-(difluoromethoxy)phenyl]-2-(1,2,3,4-tetrahydroquinoline-1-carbonyl)prop-2-enenitrile], the viability at 48 h, 25 µM stood at 64.6%. For the compound `Cc1ccc(C=C(C#N)C(=O)Nc2ccc(C(=O)O)cc2)s1` [8-E04, 4-[2-cyano-3-(5-methylthiophen-2-yl)prop-2-enamido]benzoic acid], the viability at 48 h, 25 µM amounted to 91.5%. For `CCNC(=O)C(C#N)=Cc1ccc(OC(F)F)cc1` [8-E05, 2-cyano-3-[4-(difluoromethoxy)phenyl]-N-ethylprop-2-enamide] the value was 81.4%; for `CN(C)c1ccc(C=C(C#N)C(=O)Nc2nccs2)cc1` [8-E06, 2-cyano-3-[4-(dimethylamino)phenyl]-N-(1,3-thiazol-2-yl)prop-2-enamide], 75.1%.

Regarding `CC1CCCCC1NC(=O)C(C#N)=Cc1cccc(O)c1` (centres unmarked) [8-E07, 2-cyano-3-(3-hydroxyphenyl)-N-(2-methylcyclohexyl)prop-2-enamide], the viability at 48 h, 25 µM was determined as 45.1%. As for `Cc1n[nH]c(C)c1C=C(C#N)C(=O)Nc1ccc(SC(F)F)cc1` [8-E08, 2-cyano-N-{4-[(difluoromethyl)sulfanyl]phenyl}-3-(3,5-dimethyl-1H-pyrazol-4-yl)prop-2-enamide], the figure is 78.2%; as for `C=CCNC(=O)C(C#N)=Cc1ccccc1[N+](=O)[O-]` [8-E09, 2-cyano-3-(2-nitrophenyl)-N-(prop-2-en-1-yl)prop-2-enamide], 109%; as for `N#CC(=Cc1cc(F)ccc1F)C(=O)Nc1ccc(F)cc1` [8-E10, 2-cyano-3-(2,5-difluorophenyl)-N-(4-fluorophenyl)prop-2-enamide], 87.5%. For `COc1ccccc1NC(=O)C(C#N)=Cc1ccccc1F` [8-E11, 2-cyano-3-(2-fluorophenyl)-N-(2-methoxyphenyl)prop-2-enamide] the value was 67.4%.

In the case of `Cc1ccc(C=C(C#N)C(=O)NC2CCCC2)cc1C` [8-E12, 2-cyano-N-cyclopentyl-3-(3,4-dimethylphenyl)prop-2-enamide], the viability at 48 h, 25 µM turned out to be 54.9%. Consider `Cc1cc(C)c(NC(=O)C(C#N)=Cc2ccccc2C)c(C)c1` [8-E13, 2-cyano-3-(2-methylphenyl)-N-(2,4,6-trimethylphenyl)prop-2-enamide], for which the viability at 48 h, 25 µM was found to be 37.8%. For `Cc1cc(C=C(C#N)C(=O)Nc2ccccc2)c(C)n1C1CC1` [8-E14, 2-cyano-3-(1-cyclopropyl-2,5-dimethyl-1H-pyrrol-3-yl)-N-phenylprop-2-enamide], the viability at 48 h, 25 µM amounted to 91.7%. Consider `N#CC(=Cc1ccccc1)C(=O)Nc1ccc(N2CCCCC2)cc1` [8-E15, 2-cyano-3-phenyl-N-[4-(piperidin-1-yl)phenyl]prop-2-enamide], for which the viability at 48 h, 25 µM came to 64.7%.

Turning to `Cc1ccc(C=C(C#N)C(=O)Nc2ccccc2C(F)(F)F)cc1` [8-E16, 2-cyano-3-(4-methylphenyl)-N-[2-(trifluoromethyl)phenyl]prop-2-enamide], the viability at 48 h, 25 µM turned out to be 96.3%. As for `Cc1ccc(C=C(C#N)C(=O)N2CCCC2)cc1` [8-E17, 3-(4-methylphenyl)-2-(pyrrolidine-1-carbonyl)prop-2-enenitrile], the figure is 75.4%; as for `COc1ccccc1NC(=O)C(C#N)=Cc1ccc(F)cc1` [8-E18, 2-cyano-3-(4-fluorophenyl)-N-(2-methoxyphenyl)prop-2-enamide], 81%. As for `Cc1cc(C)c(NC(=O)C(C#N)=Cc2ccccc2)c(C)c1` [8-E19, 2-cyano-3-phenyl-N-(2,4,6-trimethylphenyl)prop-2-enamide], the figure is 29.4%; as for `N#CC(=CNc1ccc(F)cc1)C(=O)NCc1ccccc1` [8-E20, N-benzyl-2-cyano-3-[(4-fluorophenyl)amino]prop-2-enamide], 98.3%. In the case of `C=CCNC(=O)C(C#N)=Cc1ccc(OC)c(O)c1` [8-E21, 2-cyano-3-(3-hydroxy-4-methoxyphenyl)-N-(prop-2-en-1-yl)prop-2-enamide], the viability at 48 h, 25 µM stood at 75.7%. Regarding `Cc1c(C=C(C#N)C(=O)NCC2(c3ccccc3)CC2)cc(C#N)n1C` [8-E22, 2-cyano-3-(5-cyano-1,2-dimethyl-1H-pyrrol-3-yl)-N-[(1-phenylcyclopropyl)methyl]prop-2-enamide], the viability at 48 h, 25 µM was 79.4%. For `N#CC(=Cc1ccccc1Cl)C(=O)Nc1ccc2c(c1)OCCO2` [8-F03, 3-(2-chlorophenyl)-2-cyano-N-(2,3-dihydro-1,4-benzodioxin-6-yl)prop-2-enamide] the value was 94.9%; for `N#CC(=Cc1cc(C#N)cs1)C(=O)NC(N)=O` [8-F04, {2-cyano-2-[(4-cyanothiophen-2-yl)methylidene]acetyl}urea], 85.8%. As to `N#CC(=Cc1ccccc1OCc1ccccc1)C(=O)NC(N)=O` [8-F05, (2-{[2-(benzyloxy)phenyl]methylidene}-2-cyanoacetyl)urea], the viability at 48 h, 25 µM worked out at 84.9%.

In the case of `COc1cccc(NC(=O)C(C#N)=Cc2cccc(Cl)c2Cl)c1` [8-F06, 2-cyano-3-(2,3-dichlorophenyl)-N-(3-methoxyphenyl)prop-2-enamide], the viability at 48 h, 25 µM amounted to 29.8%. Take `N#CC(=Cc1ccc(O)c(O)c1)C(=O)Nc1cccc(Cl)c1Cl` [8-F07, 2-cyano-N-(2,3-dichlorophenyl)-3-(3,4-dihydroxyphenyl)prop-2-enamide]: the viability at 48 h, 25 µM was 77.6%. Turning to `CC(=Cc1ccccc1)C=C(C#N)C(=O)Nc1nccs1` [8-F08, 2-cyano-4-methyl-5-phenyl-N-(1,3-thiazol-2-yl)penta-2,4-dienamide], the viability at 48 h, 25 µM turned out to be 84.2%. For `COc1ccc(NC(=O)C(C#N)=Cc2cccc(O)c2)cc1OC` [8-F09, 2-cyano-N-(3,4-dimethoxyphenyl)-3-(3-hydroxyphenyl)prop-2-enamide] the value was 86.1%; for `N#CC(=Cc1cccs1)C(=O)Nc1ccc(F)cc1` [8-F10, 2-cyano-N-(4-fluorophenyl)-3-(thiophen-2-yl)prop-2-enamide], 102%.

The term viability denotes a read-out of living cells in per cent, often relative to untreated cells.

(Values after publication PMC11995724, “Antibiotic target discovery by integrated phenotypic and activity-based profiling of electrophilic fragments” (Cell chemical biology, 2025).)
